# Data: ChEMBL document CHEMBL6103575, “Design, synthesis and evaluation of (E)-1-(4-(2-(1H-pyrazol-5-yl)vinyl)phenyl) derivatives as next generation selective RET inhibitors overcoming RET solvent front mutations (G810C/R)” (Eur J Med Chem, 2025)
# Key:
# [1] = system: Proto-oncogene tyrosine-protein kinase receptor Ret (Homo sapiens), P07949 [G810C]; assay: Inhibition of RET (unknown origin) G810C mutant at 1 uM relative to control
# [2] = biological target: T1, Platelet-derived growth factor receptor alpha (Homo sapiens, UniProt P16234); assay: Inhibition of PDGFRalpha (unknown origin) at 1 uM relative to control
# T1 sequence (P16234 whole entry): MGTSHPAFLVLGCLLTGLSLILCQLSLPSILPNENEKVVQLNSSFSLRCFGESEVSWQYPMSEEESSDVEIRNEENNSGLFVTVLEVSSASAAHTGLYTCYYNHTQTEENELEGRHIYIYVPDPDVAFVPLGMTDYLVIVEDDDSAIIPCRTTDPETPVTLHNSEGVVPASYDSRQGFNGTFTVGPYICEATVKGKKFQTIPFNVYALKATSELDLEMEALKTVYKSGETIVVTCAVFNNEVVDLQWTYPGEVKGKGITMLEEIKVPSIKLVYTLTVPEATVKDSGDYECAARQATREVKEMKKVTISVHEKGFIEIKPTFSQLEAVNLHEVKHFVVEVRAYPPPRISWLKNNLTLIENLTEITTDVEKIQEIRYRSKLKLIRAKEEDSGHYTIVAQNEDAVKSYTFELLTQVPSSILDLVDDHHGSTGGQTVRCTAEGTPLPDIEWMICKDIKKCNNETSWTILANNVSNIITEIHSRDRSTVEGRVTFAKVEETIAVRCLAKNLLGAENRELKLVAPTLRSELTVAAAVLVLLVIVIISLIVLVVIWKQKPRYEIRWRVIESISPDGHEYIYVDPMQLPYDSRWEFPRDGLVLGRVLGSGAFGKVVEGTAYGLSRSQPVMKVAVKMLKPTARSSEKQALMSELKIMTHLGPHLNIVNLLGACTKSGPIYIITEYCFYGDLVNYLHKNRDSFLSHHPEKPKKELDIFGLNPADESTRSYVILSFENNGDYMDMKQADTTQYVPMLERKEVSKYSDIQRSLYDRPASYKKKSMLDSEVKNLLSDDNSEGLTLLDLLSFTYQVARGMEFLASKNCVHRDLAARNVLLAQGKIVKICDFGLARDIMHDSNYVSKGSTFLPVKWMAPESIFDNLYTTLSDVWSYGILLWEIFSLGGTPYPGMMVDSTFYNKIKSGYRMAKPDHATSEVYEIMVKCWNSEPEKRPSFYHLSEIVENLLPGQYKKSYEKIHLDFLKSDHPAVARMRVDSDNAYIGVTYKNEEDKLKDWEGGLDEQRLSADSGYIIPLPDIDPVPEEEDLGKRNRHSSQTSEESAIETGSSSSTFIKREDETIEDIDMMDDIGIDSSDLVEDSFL
# [3] = biological target: Proto-oncogene tyrosine-protein kinase receptor Ret (Homo sapiens, UniProt P07949, V804M); assay: Inhibition of RET (unknown origin) V804M mutant
# Chain of Proto-oncogene tyrosine-protein kinase receptor Ret (P07949 29-1114 V804M limits assumed): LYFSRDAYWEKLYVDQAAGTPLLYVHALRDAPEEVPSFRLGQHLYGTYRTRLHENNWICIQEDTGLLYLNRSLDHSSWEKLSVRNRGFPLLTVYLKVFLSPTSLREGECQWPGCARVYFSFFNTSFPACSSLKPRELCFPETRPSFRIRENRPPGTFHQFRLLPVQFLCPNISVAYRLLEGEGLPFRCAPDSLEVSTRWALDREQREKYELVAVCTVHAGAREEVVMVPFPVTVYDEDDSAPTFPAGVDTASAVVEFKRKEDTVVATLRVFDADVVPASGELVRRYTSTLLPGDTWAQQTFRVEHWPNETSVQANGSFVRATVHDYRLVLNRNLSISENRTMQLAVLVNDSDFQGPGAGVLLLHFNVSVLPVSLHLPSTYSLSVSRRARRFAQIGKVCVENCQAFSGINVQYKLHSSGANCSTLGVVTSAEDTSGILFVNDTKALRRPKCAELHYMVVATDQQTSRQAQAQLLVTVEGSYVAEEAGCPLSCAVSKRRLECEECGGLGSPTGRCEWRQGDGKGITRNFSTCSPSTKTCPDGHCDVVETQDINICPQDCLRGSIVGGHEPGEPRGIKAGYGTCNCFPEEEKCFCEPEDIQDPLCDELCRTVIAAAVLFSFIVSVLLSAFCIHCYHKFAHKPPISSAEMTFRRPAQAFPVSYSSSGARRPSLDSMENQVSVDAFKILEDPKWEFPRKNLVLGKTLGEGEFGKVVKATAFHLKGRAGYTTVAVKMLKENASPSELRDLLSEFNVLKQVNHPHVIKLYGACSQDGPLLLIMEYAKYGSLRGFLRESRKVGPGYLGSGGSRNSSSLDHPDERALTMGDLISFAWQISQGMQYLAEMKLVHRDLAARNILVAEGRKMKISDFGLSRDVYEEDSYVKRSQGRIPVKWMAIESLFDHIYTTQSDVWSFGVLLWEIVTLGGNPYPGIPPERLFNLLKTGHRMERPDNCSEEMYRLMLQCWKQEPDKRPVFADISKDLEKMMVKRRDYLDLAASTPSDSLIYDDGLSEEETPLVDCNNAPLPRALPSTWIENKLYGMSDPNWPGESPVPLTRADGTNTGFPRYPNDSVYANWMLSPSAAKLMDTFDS
# [4] = biological target: T1, Platelet-derived growth factor receptor alpha; assay: Inhibition of PDGFRalpha (unknown origin)
# Ephrin type-A receptor 2 = Ephrin type-A receptor 2 (Homo sapiens, UniProt P29317); assay: Inhibition of EPHA2 (unknown origin)
# Chain of Ephrin type-A receptor 2 (P29317 whole entry): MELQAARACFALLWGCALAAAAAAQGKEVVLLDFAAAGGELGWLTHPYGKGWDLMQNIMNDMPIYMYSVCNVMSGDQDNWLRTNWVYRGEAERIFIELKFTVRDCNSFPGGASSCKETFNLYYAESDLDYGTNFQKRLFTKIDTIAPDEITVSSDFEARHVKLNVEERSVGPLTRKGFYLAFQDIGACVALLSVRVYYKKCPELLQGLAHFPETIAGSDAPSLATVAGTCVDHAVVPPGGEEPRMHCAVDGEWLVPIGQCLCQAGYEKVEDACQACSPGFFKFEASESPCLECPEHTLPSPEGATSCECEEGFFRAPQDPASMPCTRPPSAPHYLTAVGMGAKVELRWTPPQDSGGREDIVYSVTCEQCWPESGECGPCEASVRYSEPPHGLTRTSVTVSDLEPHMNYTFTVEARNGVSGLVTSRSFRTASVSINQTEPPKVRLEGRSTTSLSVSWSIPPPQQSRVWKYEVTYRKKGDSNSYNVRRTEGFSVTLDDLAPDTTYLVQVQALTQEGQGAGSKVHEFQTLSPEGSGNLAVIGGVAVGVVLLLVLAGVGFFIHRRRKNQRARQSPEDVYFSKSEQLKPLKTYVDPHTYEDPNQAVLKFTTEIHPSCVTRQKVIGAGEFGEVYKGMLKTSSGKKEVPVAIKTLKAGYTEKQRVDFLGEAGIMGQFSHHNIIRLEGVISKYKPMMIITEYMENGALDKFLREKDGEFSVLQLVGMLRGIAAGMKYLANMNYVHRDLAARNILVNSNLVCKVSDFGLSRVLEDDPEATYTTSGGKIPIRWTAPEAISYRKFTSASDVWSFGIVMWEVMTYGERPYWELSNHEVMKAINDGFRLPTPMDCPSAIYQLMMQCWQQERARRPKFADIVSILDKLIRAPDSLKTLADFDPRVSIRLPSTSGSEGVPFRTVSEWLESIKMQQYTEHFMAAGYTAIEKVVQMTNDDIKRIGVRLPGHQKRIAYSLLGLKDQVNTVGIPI
# [5] = Induction of apoptosis in mouse BaF3 cells harboring CCDC6-RET assessed as early apoptotic cells at 30 nM incubated for 48 hrs by Annexin V-PE staining based flow cytometry analysis (Rvb =6.21%); format: functional
# [6] = Induction of apoptosis in mouse BaF3 cells harboring CCDC6-RET assessed as necrotic cells at 300 nM incubated for 48 hrs by Annexin V-PE staining based flow cytometry analysis (Rvb =0.19%); format: functional
# [7] = Induction of apoptosis in mouse BaF3 cells harboring CCDC6-RET G810C mutant assessed as viable cells at 10 nM incubated for 48 hrs by Annexin V-PE staining based flow cytometry analysis (Rvb =86.47%); format: functional; settings: read-out: Activity
# [8] = Induction of apoptosis in mouse BaF3 cells harboring CCDC6-RET G810C mutant assessed as late apoptotic cells at 10 nM incubated for 48 hrs by Annexin V-PE staining based flow cytometry analysis (Rvb =4.30%); format: functional
# [9] = Induction of apoptosis in mouse BaF3 cells harboring CCDC6-RET G810C mutant assessed as necrotic cells at 10 nM incubated for 48 hrs by Annexin V-PE staining based flow cytometry analysis (Rvb =0.48%); format: functional
# [10] = Induction of apoptosis in mouse BaF3 cells harboring CCDC6-RET G810C mutant assessed as necrotic cells at 30 nM incubated for 48 hrs by Annexin V-PE staining based flow cytometry analysis (Rvb =0.48%); format: functional
# [11] = Induction of apoptosis in mouse BaF3 cells harboring CCDC6-RET G810C mutant assessed as viable cells at 100 nM incubated for 48 hrs by Annexin V-PE staining based flow cytometry analysis (Rvb =86.47%); format: functional; settings: read-out: Activity
# [12] = Induction of apoptosis in mouse BaF3 cells harboring CCDC6-RET G810C mutant assessed as viable cells at 300 nM incubated for 48 hrs by Annexin V-PE staining based flow cytometry analysis (Rvb =86.47%); format: functional; settings: read-out: Activity
# [13] = Induction of apoptosis in mouse BaF3 cells harboring CCDC6-RET G810C mutant assessed as late apoptotic cells at 300 nM incubated for 48 hrs by Annexin V-PE staining based flow cytometry analysis (Rvb =4.30%); format: functional
# [14] = Induction of apoptosis in mouse BaF3 cells harboring CCDC6-RET G810R mutant assessed as early apoptotic cells at 10 nM incubated for 48 hrs by Annexin V-PE staining based flow cytometry analysis (Rvb =10 %); format: functional
# [15] = Induction of apoptosis in mouse BaF3 cells harboring CCDC6-RET G810R mutant assessed as necrotic cells at 30 nM incubated for 48 hrs by Annexin V-PE staining based flow cytometry analysis (Rvb =0.30%); format: functional
# [16] = Induction of apoptosis in mouse BaF3 cells harboring CCDC6-RET G810R mutant assessed as viable cells at 100 nM incubated for 48 hrs by Annexin V-PE staining based flow cytometry analysis (Rvb =86.40%); format: functional; settings: read-out: Activity
# [17] = Induction of apoptosis in mouse BaF3 cells harboring CCDC6-RET G810R mutant assessed as late apoptotic cells at 100 nM incubated for 48 hrs by Annexin V-PE staining based flow cytometry analysis (Rvb =3.21%); format: functional
# [18] = Induction of apoptosis in mouse BaF3 cells harboring CCDC6-RET G810R mutant assessed as necrotic cells at 300 nM incubated for 48 hrs by Annexin V-PE staining based flow cytometry analysis (Rvb =0.30%); format: functional
# [19] = Induction of cell cycle arrest in mouse BaF3 cells harboring CCDC6-RET assessed as accumulation of cells at G0/G1 phase at 10 nM incubated for 24 hrs by propidium iodide staining based analysis (reference value: 52.51%); format: functional
# [20] = Induction of cell cycle arrest in mouse BaF3 cells harboring CCDC6-RET assessed as accumulation of cells at G2/M phase at 10 nM incubated for 24 hrs by propidium iodide staining based analysis (reference value: 34.11%); format: functional
# [21] = Induction of cell cycle arrest in mouse BaF3 cells harboring CCDC6-RET assessed as accumulation of cells at S phase at 100 nM incubated for 24 hrs by propidium iodide staining based analysis (reference value: 13.27%); format: functional
# [22] = Induction of cell cycle arrest in mouse BaF3 cells harboring CCDC6-RET assessed as accumulation of cells at G2/M phase at 300 nM incubated for 24 hrs by propidium iodide staining based analysis (reference value: 34.11%); format: functional
# [23] = Induction of cell cycle arrest in mouse BaF3 cells harboring CCDC6-RET G810C mutant assessed as accumulation of cells at G0/G1 phase at 10 nM incubated for 24 hrs by propidium iodide staining based analysis (reference value: 52.11%); format: functional
# [24] = Induction of cell cycle arrest in mouse BaF3 cells harboring CCDC6-RET G810C mutant assessed as accumulation of cells at G0/G1 phase at 30 nM incubated for 24 hrs by propidium iodide staining based analysis (reference value: 52.11%); format: functional
# [25] = Induction of cell cycle arrest in mouse BaF3 cells harboring CCDC6-RET G810C mutant assessed as accumulation of cells at S phase at 100 nM incubated for 24 hrs by propidium iodide staining based analysis (reference value: 12.47%); format: functional
# [26] = Induction of cell cycle arrest in mouse BaF3 cells harboring CCDC6-RET G810C mutant assessed as accumulation of cells at G2/M phase at 100 nM incubated for 24 hrs by propidium iodide staining based analysis (reference value: 34.75%); format: functional
# [27] = Induction of cell cycle arrest in mouse BaF3 cells harboring CCDC6-RET G810C mutant assessed as accumulation of cells at S phase at 300 nM incubated for 24 hrs by propidium iodide staining based analysis (reference value: 12.47%); format: functional
# [28] = Induction of cell cycle arrest in mouse BaF3 cells harboring CCDC6-RET G810R mutant assessed as accumulation of cells at G0/G1 phase at 30 nM incubated for 24 hrs by propidium iodide staining based analysis (reference value: 52.63%); format: functional
# BaF3 [29] = assay: Inhibition of RET phosphorylation in mouse BaF3 cells harboring CCDC6-RET G810R mutant incubated for 12 hrs by Western blotting analysis; format: cell-based; settings: dose <= 300.0 nM
# BaF3 [30] = assay: Inhibition of SHC phosphorylation in mouse BaF3 cells harboring CCDC6-RET G810R mutant incubated for 12 hrs by Western blotting analysis; format: cell-based; settings: dose <= 300.0 nM
# Chain of Proto-oncogene tyrosine-protein kinase receptor Ret (Homo sapiens), P07949 [G810C] (P07949 whole entry G810C): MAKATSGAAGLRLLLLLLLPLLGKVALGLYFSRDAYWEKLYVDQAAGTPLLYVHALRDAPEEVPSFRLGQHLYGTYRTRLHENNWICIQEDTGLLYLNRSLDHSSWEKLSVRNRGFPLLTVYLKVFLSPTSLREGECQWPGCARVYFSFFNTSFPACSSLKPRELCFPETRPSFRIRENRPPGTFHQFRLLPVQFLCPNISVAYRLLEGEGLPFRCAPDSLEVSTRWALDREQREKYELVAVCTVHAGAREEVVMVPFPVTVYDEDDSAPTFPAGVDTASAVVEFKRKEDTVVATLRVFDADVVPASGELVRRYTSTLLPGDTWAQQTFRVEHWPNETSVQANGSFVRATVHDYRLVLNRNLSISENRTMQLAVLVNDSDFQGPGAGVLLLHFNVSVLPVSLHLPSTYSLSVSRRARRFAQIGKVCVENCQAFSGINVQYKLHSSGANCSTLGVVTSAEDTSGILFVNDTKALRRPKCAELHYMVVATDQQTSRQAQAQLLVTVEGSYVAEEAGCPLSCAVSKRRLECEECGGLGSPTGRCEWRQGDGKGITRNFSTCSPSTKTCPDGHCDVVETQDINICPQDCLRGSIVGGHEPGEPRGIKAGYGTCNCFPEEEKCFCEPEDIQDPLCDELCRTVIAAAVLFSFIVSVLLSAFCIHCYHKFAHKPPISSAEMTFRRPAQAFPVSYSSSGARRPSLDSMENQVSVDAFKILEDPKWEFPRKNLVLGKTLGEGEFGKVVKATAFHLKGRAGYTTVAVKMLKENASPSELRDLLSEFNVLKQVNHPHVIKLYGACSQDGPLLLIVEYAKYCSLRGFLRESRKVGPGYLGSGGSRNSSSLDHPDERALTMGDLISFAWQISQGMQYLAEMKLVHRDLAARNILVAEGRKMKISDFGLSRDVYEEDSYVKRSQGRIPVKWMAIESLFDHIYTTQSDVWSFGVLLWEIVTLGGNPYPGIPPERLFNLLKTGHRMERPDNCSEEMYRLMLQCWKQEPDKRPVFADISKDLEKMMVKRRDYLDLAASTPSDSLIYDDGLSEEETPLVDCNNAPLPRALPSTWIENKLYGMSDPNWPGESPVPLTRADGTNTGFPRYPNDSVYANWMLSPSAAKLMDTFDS
compound,measurement,setting,value
COc1cncc(-c2cn[nH]c2/C=C/c2ccc(NC(=O)Nc3cc(C(C)(C)C(F)(F)F)on3)c(Cl)c2)c1,inhibition,[1],102%
same,inhibition,[2],101%
same,IC50,[3],0.162 µM
same,IC50,[4],0.0173 µM
same,IC50,Ephrin type-A receptor 2,0.0634 µM
same,Activity,[5],22.34%
same,Activity,[6],0.04%
same,viability at 0.01 µM,[7],87.1%
same,Activity,[8],3.24%
same,Activity,[9],0.49%
same,Activity,[10],0.47%
same,viability at 0.1 µM,[11],60%
same,viability at 0.3 µM,[12],8.22%
same,Activity,[13],0.31%
same,Activity,[14],10.05%
same,Activity,[15],0.14%
same,viability at 0.1 µM,[16],74%
same,Activity,[17],10.19%
same,Activity,[18],0.07%
same,Activity,[19],54%
same,Activity,[20],32.46%
same,Activity,[21],7.33%
same,Activity,[22],12.51%
same,Activity,[23],52.74%
same,Activity,[24],57.08%
same,Activity,[25],6.84%
same,Activity,[26],25.81%
same,Activity,[27],4.14%
same,Activity,[28],53.02%
same,inhibition,BaF3 [29],Dose-dependent-effect
same,inhibition,BaF3 [30],Dose-dependent-effect
